Assay results from patent publication US12600705B2, “Heat shock protein modulators and anti-Huntington disease therapeutic agents” (UNIVERSITY OF PITTSBURGH-OF THE COMMONWEALTH SYSTEM OF …, priority 2020, dated 2026).

Columns and labels:
[1] = system: HEK293 cells that express an HTT exon containing 17 glutamine repeats (HTT17Q-mCherry); assay: Huntington's Disease (HD) model: protein aggregates (puncta) per cell in HEK293H cells transfected with HTT17Q-mCherry; details: 6 h; for Effectiveness compared to MAL1-271 (Less/Similar/More) / Effectiveness compared to the MAL1-271 positive control: 10 μM; for Effectiveness compared to MAL1-271 (Less/Similar/More): blunting formation of toxic aggregates; for Effectiveness compared to the MAL1-271 positive control: Example 2; for Effect on aggregate suppression compared to the MAL1-271 positive control: Example 1, FIG. 2, 10 μM compound
Method: Cells were stained for confocal microscope imaging with 4′,6-diamidino-2-phenylindole (DAPI), a fluorescent dye with high affinity to adenine-thymine rich DNA regions. A bright spot detection tool was used to identify and quantify the number of protein aggregates (“dots”) per cell.
Biological Assays: For HD assays, HEK293H cells were grown in DMEM (Sigma-Aldrich, Saint Louis, MO) supplemented with 10% fetal bovine serum (GE Healthcare Hyclone) and 1% penicillin/streptomycin (Thermo Fisher Scientific, Waltham, MA) at 37° C. and at a 5% CO2 atmosphere. Cells were seeded at 250,000 cells/plate in Poly-D-Lysine Coated 35 mm MatTek dishes (P35GC-1.5-10-C, MatTek Corporation, Ashland, MA). After 24 h growth, a total of 4 μg of mCherry tagged-polyglutamine-expanded (17-polyQ-expanded) huntingtin (HTT) was introduced using Lipofectamine 2000 (Invitrogen, Thermo Fisher Scientific) according to the manufacturer's instructions. […] The following day, cells were treated with vehicle (DMSO) as control or with 10 μM of the examined compounds for 6 h. The cells were then washed with PBS and fixed in 4% formaldehyde for 15 min at room temperature. Finally, cells were stained with DAPI (1:250 in PBS) for 4 h and maintained in PBS for confocal microscope imaging.
Complete volumes of cells were acquired at 0.5-μm steps, and volumes were reconstructed and analyzed using Nikon's NIS-Elements software (Nikon Instrument, Melville, NY). Bright spot detection tool was used to identify and quantify the number of protein aggregates (“dots”) per cell. A non-parametric Kruskal-Wallis test analysis was performed using Prism software (GraphPad, La Jolla, CA). Statistically significant differences between control (DMSO) and compound treated samples are indicated by asterisks in figure. To obtain representative images from this experiment, maximum intensity projections of 0.5-μm steps though the entire cell were generated using Nikon's NIS-Elements software.
Cells were stained for confocal microscope imaging with 4′,6-diamidino-2-phenylindole (DAPI) and bright spot detection tool was used to identify and quantify the number of protein aggregates (“dots”) per cell.

HDAC 1-3 = HDAC 1-3 assay (BioVision kit, HeLa nuclear extract); details: for Percent inhibition HDAC 1-3: Compound tested at 1 uM
Method: For HDAC 1-3 assays, kits from BioVision Incorporated (https://www.biovision.com/) were used and their recommended protocols followed. […] Each compound was dissolved in DMSO to generate a 100 μM stock solution, then diluted using HPLC-grade water to prepare 10 μM, 2 μM, and 1 μM solutions. These solutions were used for the assays. […] Assays utilized a BioTek Synergy H1 microplate reader and black Nunc MicroWell 96-well optical-bottom plates with polymer base.
HDAC 1-3: 10 μL of each diluted compound (10 μM) and 40 μL of HPLC-grade water were mixed and added into a well on the plate. […] Then, 50 μL of the reaction mixture was added to each well and the solution was mixed thoroughly. The reaction mixture consisted of 500 μL of 10×HDAC Assay buffer, 100 μL of HeLa nuclear extract, 250 μL of HDAC substrate, and 1.65 mL of HPLC-grade water. The plate was then warmed in an incubator at 37° C. with a rocker platform and was incubated for 30 min. After the incubation, 10 μL of Lysine Developer solution was added to each well. The plate was kept in the incubator for an additional 30 min. Afterwards, the plate was analyzed using a BioTek Synergy H1 microplate reader, taking two independent readings per well that were subsequently averaged.

HDAC 6 = biological target: T1, HDAC 6 (Homo sapiens, UniProt Q9UBN7); assay: HDAC 6 assay (BPS Bioscience kit); details: read-out: Percent Inhibition
T1 sequence (Q9UBN7 1-1215): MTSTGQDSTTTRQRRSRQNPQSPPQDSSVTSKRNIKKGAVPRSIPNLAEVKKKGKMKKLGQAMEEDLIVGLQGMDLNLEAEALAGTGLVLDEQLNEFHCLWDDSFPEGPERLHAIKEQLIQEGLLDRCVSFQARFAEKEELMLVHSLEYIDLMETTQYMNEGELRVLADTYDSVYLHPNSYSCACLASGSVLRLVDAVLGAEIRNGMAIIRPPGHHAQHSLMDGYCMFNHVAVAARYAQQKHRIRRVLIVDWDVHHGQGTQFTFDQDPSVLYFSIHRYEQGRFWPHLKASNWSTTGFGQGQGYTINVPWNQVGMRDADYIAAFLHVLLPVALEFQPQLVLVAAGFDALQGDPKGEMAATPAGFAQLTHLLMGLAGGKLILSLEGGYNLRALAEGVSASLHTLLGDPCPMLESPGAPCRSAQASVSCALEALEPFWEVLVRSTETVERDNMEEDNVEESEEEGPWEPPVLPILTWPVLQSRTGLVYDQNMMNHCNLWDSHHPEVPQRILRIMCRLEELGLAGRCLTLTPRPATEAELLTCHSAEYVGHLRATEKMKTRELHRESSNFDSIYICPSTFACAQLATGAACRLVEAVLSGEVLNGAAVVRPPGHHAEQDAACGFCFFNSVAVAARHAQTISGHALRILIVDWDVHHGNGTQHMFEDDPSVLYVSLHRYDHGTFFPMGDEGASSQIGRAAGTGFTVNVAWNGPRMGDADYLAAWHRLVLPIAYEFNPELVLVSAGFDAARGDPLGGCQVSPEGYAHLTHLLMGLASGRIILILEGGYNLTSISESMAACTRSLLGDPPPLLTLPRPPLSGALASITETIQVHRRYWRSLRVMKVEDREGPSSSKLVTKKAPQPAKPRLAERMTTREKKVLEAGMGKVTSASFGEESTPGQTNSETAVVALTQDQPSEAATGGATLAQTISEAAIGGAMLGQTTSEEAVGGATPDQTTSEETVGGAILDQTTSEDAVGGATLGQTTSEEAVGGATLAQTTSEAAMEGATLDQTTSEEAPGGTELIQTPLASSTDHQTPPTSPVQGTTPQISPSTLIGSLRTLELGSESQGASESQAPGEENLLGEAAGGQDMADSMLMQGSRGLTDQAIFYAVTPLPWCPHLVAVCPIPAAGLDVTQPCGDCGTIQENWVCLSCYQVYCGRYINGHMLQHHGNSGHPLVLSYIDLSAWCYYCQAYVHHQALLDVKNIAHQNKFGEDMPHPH
Method: (§1) For HDAC 4-8 assays, kits from BPS Bioscience (https://bpsbioscience.com/) were used and their recommended protocols followed. […] Each compound was dissolved in DMSO to generate a 100 μM stock solution, then diluted using HPLC-grade water to prepare 10 μM, 2 μM, and 1 μM solutions. These solutions were used for the assays. […] Assays utilized a BioTek Synergy H1 microplate reader and black Nunc MicroWell 96-well optical-bottom plates with polymer base.
(§2) HDAC 4 (and, by analogy, HDAC 5, 6, 7, and 8): 40 μL of the parent solution was added to each well on the plate. The parent solution was prepared from a fluorogenic HDAC substrate, a 1 mg/mL solution of bovine serum albumin (BSA) in water, and HDAC assay buffer. 5 μL of the inhibitor buffer (10% DMSO in water) was added to the wells designated as “Blank” and “Positive Control” (no inhibitor). 5 μL of the test compound was added to each well designated as “Test Inhibitor”. Different concentrations of TSA (for a standard curve) was added to each well designated as “Standard.” 5 μL of HDAC assay buffer was added to the “Blank” wells. Then, 5 μL of HDAC 4 human recombinant enzyme was added to the wells designated as “Positive Control”, “Test Inhibitor”, and “Standard.” The plate was then warmed in an incubator at 37° C. with a rocker platform for 30 min After the incubation, 50 μL of 2×HDAC Developer solution was added to each well. The plate was returned to the incubator and was shaken on the rocker for an additional 15 min. at room temperature. Afterwards, the plate was analyzed using a BioTek Synergy H1 microplate reader, taking two independent readings per well that were subsequently averaged.

HDAC 8 = biological target: T2, HDAC 8 (Homo sapiens, UniProt Q9BY41); assay: HDAC 8 assay (BPS Bioscience kit); details: read-out: Percent Inhibition
T2 sequence (Q9BY41 1-377): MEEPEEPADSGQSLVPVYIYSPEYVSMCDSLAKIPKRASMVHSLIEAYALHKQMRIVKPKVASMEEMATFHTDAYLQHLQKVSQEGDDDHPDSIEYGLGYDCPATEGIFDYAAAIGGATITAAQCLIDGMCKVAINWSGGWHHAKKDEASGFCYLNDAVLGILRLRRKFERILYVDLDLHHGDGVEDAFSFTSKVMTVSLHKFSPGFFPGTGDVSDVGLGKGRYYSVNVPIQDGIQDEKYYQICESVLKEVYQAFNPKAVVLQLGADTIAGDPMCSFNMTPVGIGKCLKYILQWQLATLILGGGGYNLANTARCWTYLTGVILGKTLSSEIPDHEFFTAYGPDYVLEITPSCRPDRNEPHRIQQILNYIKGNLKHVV
Method: as §1, §2

CCOC(=O)C1=CN(Cc2ccc(C(=O)NO)cc2)S(=O)(=O)N(C)C1c1ccc(Cl)cc1Cl (stereo not drawn) [Compound 930_62, Ethyl 3-(2,4-dichlorophenyl)-6-(4-(hydroxycarbamoyl)benzyl)-2-methyl-3,6-dihydro-2H-1,2,6-thiadiazine-4-carboxylate 1,1-dioxide]
Effectiveness compared to MAL1-271 (Less/Similar/More) [1]: More | Effectiveness compared to the MAL1-271 positive control [1]: more effective

CCOC(=O)C1=CN(Cc2ccc(CO)cc2)S(=O)(=O)NC1c1ccc(Cl)cc1Cl (stereo not drawn) [Compound 5h, Ethyl 3-(2,4-dichlorophenyl)-6-(4-(hydroxymethyl)benzyl)-3,6-dihydro-2H-1,2,6-thiadiazine-4-carboxylate 1,1-dioxide]
Effect on aggregate suppression compared to the MAL1-271 positive control [1]: less effective

CCOC(=O)C1=CN(C(=O)OC(C)(C)C)S(=O)(=O)N(Cc2ccc(C(=O)OC(C)(C)C)cc2)C1c1ccc(Cl)cc1Cl (stereo not drawn) [Compound 6i, 2-(tert-Butyl) 4-ethyl 6-(4-(tert-butoxycarbonyl)benzyl)-5-(2,4-dichlorophenyl)-5,6-dihydro-2H-1,2,6-thiadiazine-2,4-dicarboxylate 1,1-dioxide]
Effect on aggregate suppression compared to the MAL1-271 positive control [1]: less effective

COC(=O)CCCN1C=C(C(=O)OCc2ccccc2)C(c2ccc(Cl)cc2Cl)NS1(=O)=O (stereo not drawn) [Compound 18g, Benzyl 3-(2,4-dichlorophenyl)-6-(4-methoxy-4-oxobutyl)-3,6-dihydro-2H-1,2,6-thiadiazine-4-carboxylate 1,1-dioxide]
Effect on aggregate suppression compared to the MAL1-271 positive control [1]: less effective

O=C(O)CCCN1C=C(C(=O)OCc2ccc(Cl)cc2Cl)C(c2ccc(Cl)cc2Cl)NS1(=O)=O (stereo not drawn) [Compound 959_30]
Effectiveness compared to MAL1-271 (Less/Similar/More) [1]: Similar

CCOC(=O)C1=CN(Cc2ccc(C(=O)NO)cc2)S(=O)(=O)NC1c1ccc(Cl)cc1Cl (stereo not drawn) [Compound 12h, Ethyl 3-(2,4-dichlorophenyl)-6-(4-(hydroxycarbamoyl)benzyl)-3,6-dihydro-2H-1,2,6-thiadiazine-4-carboxylate 1,1-dioxide]
Percent inhibition HDAC 1-3 (HDAC 1-3): 22%

CCOC(=O)C1=CN(Cc2ccc(C(=O)NO)cc2)S(=O)(=O)N(CC2CC2)C1c1ccc(Cl)cc1Cl (stereo not drawn) [Compound 930_63, Ethyl 2-(cyclopropylmethyl)-3-(2,4-dichlorophenyl)-6-(4-(hydroxycarbamoyl)benzyl)-3,6-dihydro-2H-1,2,6-thiadiazine-4-carboxylate 1,1-dioxide]
Effectiveness compared to MAL1-271 (Less/Similar/More) [1]: More | Effectiveness compared to the MAL1-271 positive control [1]: more effective

CCOC(=O)C1=CN(CCCC(=O)OC)S(=O)(=O)NC1c1ccc(Cl)cc1Cl (stereo not drawn) [Compound 5g, Ethyl 3-(2,4-dichlorophenyl)-6-(4-methoxy-4-oxobutyl)-3,6-dihydro-2H-1,2,6-thiadiazine-4-carboxylate 1,1-dioxide]
Effect on aggregate suppression compared to the MAL1-271 positive control [1]: less effective

CCOC(=O)C1=CN(Cc2ccc(C(=O)NO)cc2)S(=O)(=O)N(C)C1c1ccc(Cl)cc1Cl (single isomer, unassigned; (-)) [(−)-951_67, (−)-Ethyl 3-(2,4-dichlorophenyl)-6-(4-(hydroxycarbamoyl)benzyl)-2-methyl-3,6-dihydro-2H-1,2,6-thiadiazine-4-carboxylate 1,1-dioxide]
Effectiveness compared to MAL1-271 (Less/Similar/More) [1]: Similar

O=C(CCCN1C=C(C(=O)OCc2ccccc2)C(c2ccc(Cl)cc2Cl)NS1(=O)=O)OCCN1CCOCC1 (stereo not drawn) [Compound 959_74, Benzyl 3-(2,4-dichlorophenyl)-6-(4-(2-morpholinoethoxy)-4-oxobutyl)-3,6-dihydro-2H-1,2,6-thiadiazine-4-carboxylate 1,1-dioxide]
Effectiveness compared to MAL1-271 (Less/Similar/More) [1]: Similar

O=C(O)CCCN1C=C(C(=O)O)C(c2ccc(Cl)cc2Cl)NS1(=O)=O (stereo not drawn) [Compound 9g, 6-(3-Carboxypropyl)-3-(2,4-dichlorophenyl)-3,6-dihydro-2H-1,2,6-thiadiazine-4-carboxylic acid 1,1-dioxide]
Effect on aggregate suppression compared to the MAL1-271 positive control [1]: less effective

O=C(CCCCCCC(=O)Nc1ccccc1)NO [SAHA, Vorinostat]
inhibition at 0.001 µM (HDAC 6): 6% | inhibition at 0.005 µM (HDAC 6): 25% | inhibition at 0.01 µM (HDAC 6): 47% | inhibition at 0.5 µM (HDAC 6): 94% | inhibition at 0.05 µM (HDAC 8): 54% | inhibition at 0.2 µM (HDAC 8): 67% | inhibition at 1 µM (HDAC 8): 70% | inhibition at 2 µM (HDAC 8): 86% | inhibition at 5 µM (HDAC 8): 96%

CCOC(=O)C1=CN(Cc2ccc(C(=O)NO)cc2)S(=O)(=O)N(C)C1c1ccc(Cl)cc1Cl (single isomer, unassigned; (+)) [(+)-951_66, (+)-Ethyl 3-(2,4-dichlorophenyl)-6-(4-(hydroxycarbamoyl)benzyl)-2-methyl-3,6-dihydro-2H-1,2,6-thiadiazine-4-carboxylate 1,1-dioxide]
Effectiveness compared to MAL1-271 (Less/Similar/More) [1]: Less

CCOC(=O)C1=CN(Cc2ccc(C(=O)O)cc2)S(=O)(=O)NC1c1ccc(Cl)cc1Cl (stereo not drawn) [Compound 7h, 4-((5-(2,4-Dichlorophenyl)-4-(ethoxycarbonyl)-1,1-dioxido-5,6-dihydro-2H-1,2,6-thiadiazin-2-yl)methyl)benzoic acid]
Effect on aggregate suppression compared to the MAL1-271 positive control [1]: less effective

CC(/C=C/C(=O)NO)=C\[C@@H](C)C(=O)c1ccc(N(C)C)cc1 [TSA, Trichostatin A]
Percent Inhibition (HDAC 1-3; HDAC 1-3, standard at 0.0025 uM): NIA | Percent Inhibition (HDAC 1-3; HDAC 1-3, standard at 0.005 uM): NIA | Percent Inhibition (HDAC 1-3; HDAC 1-3, standard at 0.05 uM): 33% | Percent Inhibition (HDAC 1-3; HDAC 1-3, standard at 0.1 uM): 49% | Percent Inhibition (HDAC 1-3; HDAC 1-3, standard at 1 uM): 68%

CCOC(=O)C1=CN(CCCC(=O)NO)S(=O)(=O)NC1c1ccc(Cl)cc1Cl (stereo not drawn) [Compound 12g, Ethyl 3-(2,4-dichlorophenyl)-6-(4-(hydroxyamino)-4-oxobutyl)-3,6-dihydro-2H-1,2,6-thiadiazine-4-carboxylate 1,1-dioxide]
Percent inhibition HDAC 1-3 (HDAC 1-3): 1%
